≈ marks a conversion by molar mass, not a printed value.
What was measured:
MRSA Pyk = biological target: T1, MRSA Pyk (Staphylococcus aureus, UniProt Q6GG09); assay: MRSA pyruvate kinase (PK) activity, continuous LDH-coupled assay; format: biochemical, methicillin resistant S. aureus (MRSA252)
T1 construct: made in house; host or cells: E. coli BL-21 (DE3)
Outline: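 His-tagged MRSA PK (strain Sanger 252) and human PK isoforms expressed in E. coli BL-21 (DE3) and Ni-NTA purified, used at 15 nM in an LDH-coupled assay following NADH oxidation at 340 nm, 30° C, up to 5 min, ≤1% DMSO. IC50 from four-parameter variable-slope fit; Ki with PEP 2-20 mM, ADP fixed 2 mM, inhibitor 0-400 nM.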

S. aureus (ATCC29213) = assay: In vitro susceptibility, broth microdilution (MIC); format: cell-based; settings: Staphylococcus aureus; S. aureus ATCC29213; 18-24 h, 37 C; read-out: Antimicrobial activity (MIC) S. aureus ATCC29213
Outline: (§1)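 CLSI 2-fold serial broth microdilution; K. pneumoniae C238 grown in L-broth, S. aureus ATCC 29213 in Mueller Hinton broth, plates incubated 18–24 h at 37 °C. MIC taken as lowest concentration giving complete growth inhibition by OD600 versus compound-free wells, background-subtracted.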

S. aureus ATCC 29123 = assay: Thigh infection model in neutropenic mice; format: in vivo, female CD-1 mice; settings: thigh muscle, 10 mg/kg IV BID (2 and 8 h post-infection), 24 hr post infection
Method: The antimicrobial activity of compounds 23 and 60 against S. aureus ATCC 29123 was tested in vivo using a thigh infection model in neutropenic mice. Briefly, animals (female CD-1 mice, 5 weeks of age) were made neutropenic prior to S. aureus thigh infection by pre-treating with cyclophosphamide (150 mg/kg, IP, −4 and −1 days pre-inoculation). On the inoculation day (day 0), mice were infected with S. aureus at time zero (t=0). Animals were individually monitored for adverse reactions for 30 min post-infection.
Compounds 23 and 60 were prepared for IV administration and for oral administration. Vancomycin was administered as a solution in PBS. The test compounds were administered at 2 and 8 hours post-infection and animals were individually monitored for adverse reactions for 30 min after each injection. All animals were then monitored hourly from 20 hours post infection to the endpoint (t=24 hr post infection). At the indicated timepoint, animals were sacrificed and the injected thigh collected.
Quantitative enumeration of bacterial load was determined by plating serial dilutions from homogenized thigh muscles. The plates were incubated and colony counts were determined. CFU per mL calculated was calculated.

K. pneumoniae (C238) = assay: In vitro susceptibility, broth microdilution (MIC); format: cell-based; settings: Klebsiella pneumoniae; K. pneumoniae (C238); read-out: Antimicrobial activity (MIC) K. pneumoniae
Outline: as §1

MRSA MW2 (USA400) = assay: In vitro susceptibility, broth microdilution (MIC); format: cell-based, methicillin resistant S. aureus; settings: Staphylococcus aureus; MRSA MW2 (USA400); read-out: Antimicrobial activity (MIC) MSRA USA400
Outline: (§2)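 MIC determined by CLSI 2-fold broth microdilution in cation-adjusted Mueller–Hinton broth at ~2.5×10^5 CFU/ml, final compound 0.031–64 μg/ml, 18–24 h at 37 °C. MIC is the lowest concentration giving complete growth inhibition by background-corrected OD600 versus compound-free wells; duplicate or triplicate wells, replicated at least twice.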

VRE#2 (2010A) = assay: In vitro susceptibility, broth microdilution (MIC); format: cell-based, vancomycin resistant Enterococci; settings: VRE#2 (2010A); read-out: Antimicrobial activity (MIC) VRE#2
Outline: as §2

[1] = tested on: S. typhimurium (ATCC BAA-185); assay: In vitro susceptibility, broth microdilution (MIC); format: cell-based; settings: Salmonella enterica, read-out: Antimicrobial activity (MIC) S. typhimurium
Outline: as §2

[2] = Mammalian cytotoxicity, CellTiter 96 AQueous One (MTS); format: cell-based; settings: human, HeLa 229 cells, positive control
Method: The cytotoxic activities of compounds were determined for HeLa cells 229 (ATCC:CCL-2-.1) in microtiter cultures by measuring dehydrogenase activity using CellTiter 96® AQueous One Solution Cell Proliferation Assay™ (Promega™, Madison, Wis., USA), according to the manufacturer's protocol. Freshly split cells were seeded into microtiter wells (2×10^4/well) and grown for 24 hours. The original media was then removed and replaced with media containing the desired concentration of compound or solvent control (i.e., DMSO). Plates were incubated for 24 h at 37° C. in a humidified incubator with a 5% CO2 atmosphere. At the end of the growth period, cells were lysed by the addition of 20 μl of Cell Titer 96 Aqueous One™ solution, and the incubation was continued for another 3 h at 37° C. Production of formazan was determined at 490 nm on Benchmark Plus™ microplate spectrophotometer (Bio-Rad™). To control for intrinsic absorbance, control series containing inhibitor dilutions but no cells were run for every experiment and the resulting absorbance values were subtracted as background from the experimental readings. Growth in compound-free control wells was considered as 100% and percentage of growth inhibition was calculated for each compound concentration. Cytotoxicity was quantified as the CC50, the concentration of compound that inhibited 50% of conversion of MTS to formazan. […]

T1 sequence (Q6GG09 whole entry): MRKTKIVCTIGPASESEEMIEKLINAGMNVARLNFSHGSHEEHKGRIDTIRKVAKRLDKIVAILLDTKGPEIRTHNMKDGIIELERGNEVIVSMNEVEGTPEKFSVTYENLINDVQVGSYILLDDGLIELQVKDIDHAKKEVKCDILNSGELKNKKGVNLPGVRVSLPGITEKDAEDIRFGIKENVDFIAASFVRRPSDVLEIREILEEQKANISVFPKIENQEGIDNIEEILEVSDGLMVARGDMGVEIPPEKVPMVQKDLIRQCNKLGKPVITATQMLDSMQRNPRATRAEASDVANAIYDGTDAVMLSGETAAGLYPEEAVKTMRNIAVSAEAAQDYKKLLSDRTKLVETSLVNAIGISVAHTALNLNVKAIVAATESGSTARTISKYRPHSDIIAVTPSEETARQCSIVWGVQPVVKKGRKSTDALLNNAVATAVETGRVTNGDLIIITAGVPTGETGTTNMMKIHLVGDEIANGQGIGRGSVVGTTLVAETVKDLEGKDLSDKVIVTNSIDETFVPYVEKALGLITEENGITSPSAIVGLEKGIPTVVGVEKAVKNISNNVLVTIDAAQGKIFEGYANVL

Structure (SMILES)	IC50 (MRSA Pyk)	MIC (S. aureus (ATCC29213))	reduction in CFU (S. aureus ATCC 29123)	MIC (K. pneumoniae (C238))	MIC (MRSA MW2 (USA400))	MIC (VRE#2 (2010A))	MIC [1]	CC50 at 24 h [2]
CN(C)CCNC(=O)c1c(/C=C/c2ccc(Cl)cc2)[nH]c2cc(Br)ccc12 [Compound 23, (E)-6-Bromo-2-(4-chlorostyryl)-N-(2-(dimethylamino)ethyl)-1H-indole-3-carboxamide]	< 100 nM	8 µg/mL (≈ 17.9 µM)	3 log	–	–	–	–	–
O=C(O)CCCC(=O)c1c(-c2cc3cc(Cl)ccc3[nH]2)[nH]c2cc(Br)ccc12 [Compound 102, 5-(6-bromo-5′-chloro-1H,1′H-[2,2′-biindol]-3-yl)-5-oxopentanoic Acid]	< 100 nM	8 µg/mL (≈ 17.4 µM)	–	16 µg/mL (≈ 34.8 µM)	8 µg/mL (≈ 17.4 µM)	16 µg/mL (≈ 34.8 µM)	8 µg/mL (≈ 17.4 µM)	–
COc1cc(O)c(CC=C(C)C)c(O)c1C(=O)/C=C/c1ccc(O)cc1 [xanthohumol]	–	–	–	–	–	–	–	~9 µg/mL (≈ 25.4 µM)
